# Data: patent US20260209202A1, “N-METHYL-4-(QUINOLIN-2-YL)PYRIDIN-2-AMINE COMPOUNDS” (Abbvie Inc., priority 2023, published 2026)
# Legend:
# [1] = tested on: tau aggregates in globus pallidus and putamen of PSP brains; assay: In vitro autoradiography of radioligand binding to sections of globus pallidus and putamen from PSP and normal brains; set-up: species or system human
# Description: Brain Tissue. Flash-frozen (FF) tissue blocks, and, for some cases, the corresponding mirrored, formalin-fixed, paraffin-embedded (FFPE) tissue blocks from the globus pallidus and putamen of normal or Progressive Supranuclear Palsy (PSP) brains were purchased from Tissue Solutions Ltd (TS; Glasgow, UK). Both FF and FFPE tissue blocks were used to assess the distribution pattern of [3H] Compound (I) and [3H] Compound (II) binding to normal and PSP brain samples by means of in vitro autoradiography. Only FF tissue blocks were used to determine the affinity of [^3H] Compound (I) and [^3H] Compound (II) for PSP brain by means of in vitro autoradiography. […]
# In vitro autoradiography. […] The plates were read using a Phosphoimager Typhoon™ FLA-70001P (GE Healthcare, Chicago, IL USA). […]
# Quantitative analysis of the in vitro autoradiography results. Quantitative analysis was performed by computer assisted micro-densitometry (MCD; MCID basic, Interfocus, Devon, UK). […] Identification of the areas of interest was determined by reference to the Atlas of the Human Brain (Mai et al., 2015, Elsevier, ISBN:9780128028018). […]
# [2] = PET imaging in cynomolgus macaques, baseline and homologous self-block; type: in vivo; details: for off-target binding in brain: healthy cynomolgus macaques; for blood brain barrier crossing / brain uptake and clearance: intravenous radiotracer
# Experimental: PET imaging procedures in cynomolgus macaques were performed under the guidelines of the Institutional Animal Care and Use Committee. Anesthesia was maintained using isoflurane gas maintained at 1.25-3.0% for the duration of the imaging procedures. Prior to PET imaging, a head computed tomography (CT) was acquired using a Neurologica CereTom® CT system (Neurologica, Danvers, MA, USA) which was used for localization of the animal in the PET system, and later for attenuation correction of the PET data.
# The radiotracer was administered as a bolus injection (3 mL over 2 minutes), and data collected in dynamic list mode emission acquisition was initiated using a Siemens Concorde microPET® Focus™ 220 (Siemens USA, Washington DC, USA) for 120 minutes. Arterial blood samples were acquired throughout the PET acquisition to measure radioactivity in whole blood and plasma and to assess the % parent and metabolite(s) for generation of an input function for kinetic modeling analysis. The whole blood arterial samples were acquired, initially rapidly (every 30 seconds) and decreased in frequency towards the end of the PET acquisition to every 30 minutes. Arterial whole blood samples were counted in a well counter (PerkinElmer Wizard® 1470; PerkinElmer, Waltham, MA, USA) for radioactivity concentration. Samples were then centrifuged (3000 RCF for 5 minutes) to allow extraction of plasma which was subsequently counted for radioactivity concentration. To determine the proportion of unchanged radiotracer, selected plasma samples (1, 2, 3, 4, 7, 9, 15, 20, 40, 60, 90, and 120 minutes) were extracted with equal volumes of acetonitrile, then injected onto a Dionex/Thermo Ultimate 3000 radio-HPLC system (ThermoFisher, Waltham, MA, USA) consisting of a Phenomenex® Onyx™ C18 10×100 mm column (Torrance, CA, USA), an Eckert and Ziegler coincidence BGO radiodetector (model B-FC-4100, Eckert and Ziegler, Atlanta, GA, USA) and a mobile phase of (A) 10 mM ammonium acetate and (B) acetonitrile. The conditions for [^18F] Compound (I) are: 0-2.5 min, 95% A at 4 mL/min; 2.5-2.6 min, 95% A to 50% A at 4 mL/min to 3 mL/min; 2.6-10 min, 50% A at 3 mL/min; 10-10.1 min, 50% A to 95% A at 3 mL/min to 4 mL/min; 10.1-13 min, 95% A at 4 mL/min. Retention time for [^18F] Compound (I) was 8.4 min. The conditions for [^18F] Compound (II) are: 0-2.5 min, 95% A at 4 mL/min; 2.5-2.6 min, 95% A to 65% A at 4 mL/min to 3 mL/min; 2.6-10 min, 65% A at 3 mL/min; 10-10.1 min, 65% A to 95% A at 3 mL/min to 4 mL/min; 10.1-13 min, 95% A at 4 mL/min. Retention time for [^18F] Compound (II) was 9.3 min. Arterial sampling data was used to generate the input function for kinetic modeling. Potential off-target specific binding in the brain was evaluated for each lead radiotracer using a pre-dosing paradigm in which PET was performed after administration of a 1 mg/kg homologous dose of the non-radioactive tracer over a 15-minute infusion 20 minutes prior to radiotracer injection.
# Upon the completion of PET image acquisition, anesthesia was terminated, primates were monitored until fully alert, then transported to their cages. In addition to PET imaging, each primate underwent separate MRI imaging (GE Discovery™ 3T MR750 MRI scanner and GE Signa™ HDxt 1.5T MRI scanner, GE Healthcare, Chicago, IL, USA) for acquisition of a structural T1w image for purposes of co-registration and transformation to a standard atlas space. The PET data analysis was performed, and images were reconstructed using Siemens MicroPET® Manager and AsiPro (Siemens) software. PET list mode data was binned into sinograms with time frames of 6×30 seconds, 3×1 minutes, 2×2 minutes, 22×5 minutes. Images were reconstructed using filtered back projection using a Hanning filter with a 0.5 cycles/pixel cutoff. Corrections for attenuation (using the acquired CT), scatter, and deadtime correction were applied. Furthermore, the dynamic images were decay-corrected to start of PET acquisition, which coincided with the radiotracer injection. […]
# [3] = molecular target: tau aggregates in globus pallidus and putamen of PSP brains (Homo sapiens, UniProt P10636); assay: Homologous (self-) displacement in vitro autoradiography on FF PSP brain sections; type: binding; details: 3 nM radioligand displaced by corresponding non-radiolabeled compound, mean of three PSP brains, read-out: sdKD (KD determined by means of self-displacement experiments)
# Description: Brain Tissue. Flash-frozen (FF) tissue blocks, and, for some cases, the corresponding mirrored, formalin-fixed, paraffin-embedded (FFPE) tissue blocks from the globus pallidus and putamen of normal or Progressive Supranuclear Palsy (PSP) brains were purchased from Tissue Solutions Ltd (TS; Glasgow, UK). Both FF and FFPE tissue blocks were used to assess the distribution pattern of [3H] Compound (I) and [3H] Compound (II) binding to normal and PSP brain samples by means of in vitro autoradiography. Only FF tissue blocks were used to determine the affinity of [^3H] Compound (I) and [^3H] Compound (II) for PSP brain by means of in vitro autoradiography. […] The plates were read using a Phosphoimager Typhoon™ FLA-70001P (GE Healthcare, Chicago, IL USA). […] Quantitative analysis of the in vitro autoradiography results. Quantitative analysis was performed by computer assisted micro-densitometry (MCD; MCID basic, Interfocus, Devon, UK). […] Identification of the areas of interest was determined by reference to the Atlas of the Human Brain (Mai et al., 2015, Elsevier, ISBN:9780128028018). […]
# Sequence of tau aggregates in globus pallidus and putamen of PSP brains (Homo sapiens, UniProt P10636) (P10636 with tags, fused parts or gaps): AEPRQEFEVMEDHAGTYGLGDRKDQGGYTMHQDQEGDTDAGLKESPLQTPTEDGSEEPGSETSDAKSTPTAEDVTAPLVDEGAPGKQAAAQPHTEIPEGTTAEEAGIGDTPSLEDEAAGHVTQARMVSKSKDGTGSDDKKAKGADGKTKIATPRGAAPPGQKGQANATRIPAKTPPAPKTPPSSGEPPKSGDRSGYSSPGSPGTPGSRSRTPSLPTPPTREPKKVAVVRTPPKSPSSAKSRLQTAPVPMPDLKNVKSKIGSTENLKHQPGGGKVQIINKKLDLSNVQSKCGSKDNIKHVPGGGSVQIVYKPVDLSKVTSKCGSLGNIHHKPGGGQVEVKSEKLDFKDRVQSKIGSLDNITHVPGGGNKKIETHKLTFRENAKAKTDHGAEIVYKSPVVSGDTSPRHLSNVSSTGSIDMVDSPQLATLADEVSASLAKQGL
Structure (SMILES),"amount of radioligand bound to the tissue, PSP brains versus normal brains ([1]; 3 nM radioligand, grey matter of FF globus pallidus and putamen sections)",selectivity for tau aggregates in PSP affected brain tissue as compared to healthy brain tissue ([1]; globus pallidus and putamen),off-target binding in brain [2],blood brain barrier crossing [2],brain uptake and clearance [2],Kd [3],relative brain uptake among the tracers ([2]; initial brain SUV after injection)
[3H]C([3H])([3H])Nc1cc(-c2ccc3cc(OCCOC)cc(F)c3n2)ccn1 [[^3H] Compound (I)] [4-[8-fluoro-6-(2-methoxyethoxy)quinolin-2-yl]-N—(^3H3)methylpyridin-2-amine],2.1 times,high degree of selectivity,–,–,–,–,–
"CNc1cc(-c2ccc3cc(N4CC(O)(C[18F])C4)ccc3n2)ccn1 [[^18F] Compound (II), 3-[(^18F)fluoromethyl]-1-{2-[2-(methylamino)pyridin-4-yl]quinolin-6-yl}azetidin-3-ol]",–,–,did not show significant off-target binding,ability to cross the blood brain barrier,rapid uptake and rapid clearance,–,–
CNc1cc(-c2ccc3cc(OCCOC)cc(F)c3n2)ccn1 [[^3H] Compound (I)] [4-[8-fluoro-6-(2-methoxyethoxy)quinolin-2-yl]-N—(^3H3)methylpyridin-2-amine],–,–,–,–,–,12.4 nM,–
"CNc1cc(-c2ccc3cc(OCCOC)cc([18F])c3n2)ccn1 [[^18F] Compound (I), 4-[8-(^18F)fluoro-6-(2-methoxyethoxy)quinolin-2-yl]-N-methylpyridin-2-amine]",–,–,did not show significant off-target binding,ability to cross the blood brain barrier,rapid uptake and rapid clearance,–,highest uptake
